The assay deals with T1, HDM2 (Homo sapiens, UniProt Q00987).
T1 construct: Thioredoxin (N); made in house; host or cells: E. coli strain BL21(DE3)Rosetta
Briefly: HDM2 FRET assay (inhibition of binding of FITC labeled p53-pocket peptide to HDM2). Conditions: read-out: FRET IC50. In outline: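 Displacement of FITC-p53 peptide (3 nM) from His-tagged HDM2 (0.5 nM) is measured by Tb-to-fluorescein FRET in PBS, 0.01% BSA, 0.01% Tween-20. IC50 values derive from 10-point curves.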

The mark [1] stands for this setting: 0.5 nM HDM2 (residues 17 to 125), 3nM peptide, two hour incubation at room temperature.

This note sets out measurements from EP2951180B1, “2,6,7,8 SUBSTITUTED PURINES AS HDM2 INHIBITORS” (Merck Sharp & Dohme Corp., priority 2013, dated 2014).

Where two headings read alike, the source gives them in different places.

T1 sequence (Q00987 17-125): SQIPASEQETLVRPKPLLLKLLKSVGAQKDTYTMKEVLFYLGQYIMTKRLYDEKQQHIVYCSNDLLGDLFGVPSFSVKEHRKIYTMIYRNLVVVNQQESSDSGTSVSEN

On to `C[C@@H](Nc1nc(-c2noc(=O)[nH]2)nc2nc(C(O)C3CCC3)n(C[C@H]3CC[C@H](C)CC3)c12)C1CCC1` (stereo partly drawn) [Example 22.57, 3-(6-{[(1R)-1-cyclobutylethyl]amino}-8-[cyclobutyl(hydroxy)methyl]-7-[(trans-4-methylcyclohexyl)methyl] -7H-purin-2-yl)-1,2,4-oxadiazol-5(4H)-one], for which the IC50 (Table 22) is 9.75 nM. On the same count and under the same terms, the figure for `C[C@@H](Nc1nc(-c2noc(=O)[nH]2)nc2nc(C3(c4cscn4)CC3)n(C[C@H]3CC[C@H](C)CC3)c12)C1CCC1` [Example 22.54, 3-(6-{[(1R)-1-cyclobutylethyl]amino}-7-[(trans-4-methylcyclohexyl)methyl] -8-[1-(1,3-thiazol-4-yl)cyclopropyl]-7H-purin-2-yl)-1,2,4-oxadiazol-5(4H)-one] is 2.26 nM. Take `CC(C)c1ccnc(-c2nc3nc(C(=O)O)nc(N[C@H](C)C(F)(F)F)c3n2C[C@H]2CC[C@H](C)CC2)c1` [Example 15.22, 7-[(trans-4-methylcyclohexyl)methyl]-8-[4-(1-methylethyl)pyridin-2-yl]-6-{[(1R)-2,2,2-trifluoro-1-methylethyl]amino}-7H-purine-2-carboxylic acid]: under setting [1], the IC50 is 17.9 nM. On the same count and under the same terms, under `CC[S+]([O-])c1nc(N[C@H](C)C2CCC2)c2c(n1)nc(N1CCOC[C@H]1c1ccccc1)n2C[C@H]1CC[C@H](C)CC1` (stereo partly drawn) [Example 14.7, N-[(1R)-1-cyclobutylethyl]-2-(ethylsulfinyl)-7-[(trans-4-methylcyclohexyl)methyl]-8-[(3R)-3-phenylmorpholin-4-yl]-7H-purin-6-amine] stands 12.2 nM. For the compound `COC1(c2nc3nc(-c4noc(=O)[nH]4)nc(-c4cncc(Cl)c4)c3n2C[C@H]2CC[C@H](C)CC2)COC1` [Example 23.70, 3-{6-(5-chloropyridin-3-yl)-8-(3-methoxyoxetan-3-yl)-7-[(trans-4-methylcyclohexyl)methyl] -7H-purin-2-yl}-1,2,4-oxadiazol-5(4H)-one], the IC50 (Table 23) was 9.44 nM. On to `C[C@@H](Nc1nc(-c2noc(=O)[nH]2)nc2nc(C(C)(O)C3CCOCC3)n(C[C@H]3CC[C@H](C)CC3)c12)C1CCC1` (stereo partly drawn) [Example 22.38, 3-(6-{[(1R)-1-cyclobutylethyl]amino}-8-[1-hydroxy-1-(tetrahydro-2H-pyran-4-yl)ethyl]-7-[(trans-4-methylcyclohexyl)methyl] -7H-purin-2-yl)-1,2,4-oxadiazol-5(4H)-one], for which, for the setting “Table 22”, the IC50 was 4.76 nM.

`CC(c1nc2nc(C(=O)O)nc(N[C@H](C)C3CCC3)c2n1Cc1ccc(C(F)(F)F)cc1)N(C)Cc1ccccc1` (stereo partly drawn) [Example 10.12, 8-(1-(benzyl(methyl)amino)ethyl)-6-(((R)-1-cyclobutylethyl)amino)-7-(4-(trifluoromethyl)benzyl)-7H-purine-2-carboxylic acid]: the IC50 (Table 10) worked out at 139 nM. Regarding `C[C@@H](Nc1nc(-c2noc(=O)[nH]2)nc2nc(C3(c4ccccc4F)CC3)n(C[C@H]3CC[C@H](C)CC3)c12)C1CCC1` [Example 22.5, 3-(6-{[(1R)-1-cyclobutylethyl]amino}-8-[1-(2-fluorophenyl)cyclopropyl]-7-[(trans-4-methylcyclohexyl)methyl]-7H-purin-2-yl)-1,2,4-oxadiazol-5(4H)-one], under “Table 22”, the IC50 stood at 3.57 nM. Consider `C[C@@H](Nc1nc(-c2noc(=O)[nH]2)nc2nc(N(C)CC3CC3)n(C[C@H]3CC[C@H](C)CC3)c12)C1CCC1` [Example 11.42, 3-(6-{[(1R)-1-cyclobutylethyl]amino}-8-[(cyclopropylmethyl) (methyl)amino]-7-[(trans-4-methylcyclohexyl)methyl]-7H-purin-2-yl)-1,2,4-oxadiazol-5(2H)-one], for which the IC50 (Table 11) was 5.34 nM. For `Cc1cccc(-c2nc3nc(C(=O)O)nc(N[C@H](CCC(N)=O)C4CCC4)c3n2Cc2ccc(C(F)(F)F)cc2)c1` [Example 7.12, 6-{[(1R)-4-amino-1-cyclobutyl-4-oxobutyl]amino}-8-(3-methylphenyl)-7-[4-(trifluoromethyl)benzyl]-7H-purine-2-carboxylic acid], the IC50 (Table 7) was determined as 55.3 nM.

Regarding `C[C@@H](Nc1nc(C(=O)O)nc2nc(N3CCOC(c4ccccc4)C3)n(Cc3ccc(C(F)(F)F)cc3)c12)C1CCC1` (stereo partly drawn) [Example 9.22, 6-{[(1R)-1-cyclobutylethyl]amino}-8-(2-phenylmorpholin-4-yl)-7-[4-(trifluoromethyl)benzyl]-7H-purine-2-carboxylic acid], the IC50 (Table 9) was found to be 12.4 nM. Consider `C[C@@H](Nc1nc(-c2noc(=O)[nH]2)nc2nc(C(O)c3ccccc3)n(C[C@H]3CC[C@H](C)CC3)c12)C1CCC1` (stereo partly drawn) [Example 22.29, 3-(6-{[(1R)-1-cyclobutylethyl]amino}-8-[hydroxy(phenyl)methyl]-7-[(trans-4-methylcyclohexyl)methyl] -7H-purin-2-yl)-1,2,4-oxadiazol-5(4H)-one], for which, under “Table 22”, the IC50 was 1.66 nM. In the case of `C[C@@H](Nc1nc(-c2noc(=O)[nH]2)nc2nc(N3CCOC[C@H]3Cc3ccccc3)n(C[C@H]3CC[C@H](C)CC3)c12)C1CCC1` [Example 11.101, 3-{8-[(3R)-3-benzylmorpholin-4-yl]-6-{[(1R)-1-cyclobutylethyl]amino}-7-[(trans-4-methylcyclohexyl)methyl]-7H-purin-2-yl}-1,2,4-oxadiazol-5(4H)-one], the IC50 (Table 11) amounted to 16.2 nM. Consider `C[C@@H](Nc1nc(C(=O)O)nc2nc(N3CCOC(C(F)(F)F)C3)n(Cc3ccc(C(F)(F)F)cc3)c12)C1CCC1` (stereo partly drawn) [Example 9.23, 6-{[(1R)-1-cyclobutylethyl]amino}-7-[4-(trifluoromethyl)benzyl]-8-[2-(trifluoromethyl)morpholin-4-yl]-7H-purine-2-carboxylic acid], for which the IC50 (Table 9) worked out at 25.2 nM. On the same count and under the same terms, under `C[C@@H](Nc1nc(C(=O)O)nc2nc(N3C[C@H]4C[C@@H]3CO4)n(Cc3ccc(C(F)(F)F)cc3)c12)C1CCC1` [Example 9.27, 6-{[(1R)-1-cyclobutylethyl]amino}-8-[(1R,4R)-2-oxa-5-azabicyclo [2.2.1]hept-5-yl]-7-[4-(trifluoromethyl)benzyl]-7H-purine-2-carboxylic acid] stands 23.7 nM.

For `C[C@@H](Nc1nc(-c2noc(=O)[nH]2)nc2nc(N(C)C3CCCC3)n(Cc3ccc(C(F)(F)F)cc3)c12)C1CCC1` [Example 9.82, 3-(6-{[(1R)-1-cyclobutylethyl]amino}-8-[cyclopentyl(methyl)amino]-7-[4-(trifluoromethyl)benzyl]-7H-purin-2-yl)-1,2,4-oxadiazol-5(4H)-one], where the note is “Table 9”, the IC50 was 13.7 nM. For the compound `C[C@@H](Nc1nc(-c2noc(=O)[nH]2)nc2nc(C(C)(O)c3ccccn3)n(C[C@H]3CC[C@H](C)CC3)c12)C1CCC1` (single isomer, unassigned) [Example 22.7], the IC50 (Table 22) was 19.9 nM.

Regarding `C[C@@H](Nc1nc(-c2noc(=O)[nH]2)nc2nc(CC(C)(C)O)n(C[C@H]3CC[C@H](C)CC3)c12)C1CCC1` [Example 22.16, 3-(6-{[(1R)-1-cyclobutylethyl]amino}-8-(2-hydroxy-2-methylpropyl)-7-[(trans-4-methylcyclohexyl)methyl]-7H-purin-2-yl)-1,2,4-oxadiazol-5(4H)-one], the IC50 (Table 22) is 55.6 nM. Regarding `CCC1=CCC(Cn2c(-c3cc(C(C)C)ccn3)nc3nc(-c4noc(=O)[nH]4)nc(N[C@H](C)C4CCC4)c32)CC1` (stereo partly drawn) [Example 18.7, 3-(6-(((R)-1-cyclobutylethyl)amino)-7-((4-ethylcyclohex-3-en-1-yl)methyl)-8-(4-isopropylpyridin-2-yl)-7H-purin-2-yl)-1,2,4-oxadiazol-5(4H)-one], for the setting “Table 18”, the IC50 came to 44 nM.

The term IC50 denotes the concentration that gives 50% inhibition.
